Reference: patent US11541029B2, “High penetration compositions and their applications” (Techfields Pharma Co., Ltd., priority 2008, dated 2023)
Each block holds one compound with its values, some of them ahead of it.

Tests used:
[1] = test system: Human breast cancer cells (BCAP-37); experiment: Human breast cancer xenograft in nude mice
Experimental: Human breast cancer cells (BCAP-37, 2-3 mm^3 of tumor tissue was used in each mouse) were subcutaneously xenografted into nude mice (BALB, 12 groups, 7 mice each group). […] 50 μl of 5% (equal to 2.5 mg of the HPCs) diethylaminoethyl acetylsalicylate.HCl (P-1, in pure water); 1-piperidinepropyl 2[(2,6-dichlorophenyl)amino]benzene acetate.HCl (P-2, in water), 1-pyrrolidinepropyl 2-(3-benzoylphenyl) propionate.HCl (P-3, in water), 4-piperidinemethyl 2-(3-phenoxyphenyl)propionate.HCl (P-4, in water), 3-piperidinemethyl 2-(ρ-isobutylphenyl) propionate.HCl (P-5, in water), diethylaminoethyl 1-(p-chlorobenzoyl)-5-methoxy-2-methylindole 3-acetate.HCl (P-11, in water), 2-(4-morpholinyl)ethyl (Z)-5-fluoro-2-methyl-1-[(4-methylsulfinyl)phenylmethylene]-1H-indene-3-acetate.

[2] = test system: human myeloma cell line implanted into mice; experiment: Survival of mice with multiple myeloma (Example 110, Study B); assay type: in vivo; conditions: n=5
Experimental: Study B: For evaluation of antitumor activity, a human myeloma cell line derived from the ascites of a patient with multiple myeloma was implanted into mice. The experiment was carried out on 17 groups of mice. Control group (A, orally), chlorambucil (group B1: 1 mg/kg, orally, group B2, 3 mg/kg, orally, group B3:1 mg/kg, transdermally, and group B4: 3 mg/kg, transdermally), melphalan (group C1: 1 mg/kg, orally, group C2, 3 mg/kg, orally, group C3:1 mg/kg, transdermally, and group C4: 3 mg/kg, transdermally), N,N-diethylaminoethyl 4-[bis(2-chloroethyl)amino]benzenebutyrate.HBr (the HPC of chlorambucil (group D1: 1 mg/kg, orally, group D2, 3 mg/kg, orally, group D3:1 mg/kg, transdermally, and group D4: 3 mg/kg, transdermally), and 4-[bis(2-chloroethyl)amino]-N-acetyl-L-phenylalanine N,N-diethylaminoethyl ester hydrobromide (the HPC of melphalan) (group E1: 1 mg/kg, orally, group E2, 3 mg/kg, orally, group E3:1 mg/kg, transdermally, and group E4: 3 mg/kg, transdermally).

[3] = test system: human myeloma cell line implanted into mice; experiment: Survival and weight loss of myeloma mice (Example 111); assay type: in vivo; conditions: for Weight Loss: day 21; for Life Elongation Rate / None Disease Rate / Survival Period: n=7
Source text: A human myeloma cell line derived from the ascites of a patient with multiple myeloma was implanted into mice. The mice was divided into 11 groups: control group (A, orally), melphalan (B1 and B2, orally), chlorambucil (C1 and C2, orally), N,N-diethylaminoethyl 4-[bis(2-chloroethyl)amino]benzenebutyrate.HBr (D1 and D2, transdermally), 4-[bis(2-chloroethyl)amino]-N-acetyl-L-phenylalanine N,N-diethylaminoethyl ester hydrobromide (E1 and E2, transdermally in 5% aqueous solution), and diethylaminoethyl 4-[bis(2-methylsulfonylethyl)amino]benzenebutyrate.HCl (F1 and F2, transdermally in 5% aqueous solution). The body weight loss of mice was determined on day 21.

[4] = Distribution in organs of rats killed with CO2 (absence of general circulation); conditions: 5 hrs after 0.3 mmol/kg diethylaminoethyl acetylsalicylate HCl salt on back of killed rats;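 note: tissue concentration in nmol/g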
Experimental: 0.3 mmol/kg of diethylaminoethyl acetylsalicylate HCl salt (10% in pure water) was applied to the back of rats (10 cm^2) which were killed with CO2. The rats were shaken for 5 hrs, then the HPCs and parent drugs in organs of rats were determined.

[5] = 50 μl of 5% topically every 8 hours
[6] = 1.5 mg/kg per day, transdermally
[7] = 50 μl of 5% topically every 8 hours, in g (unit assumed)

Weight of mice at day 42 ([1]; in vivo): 23 ± 2
Compound: CN(C)CCCC(=O)OC1=C(C(=O)Nc2ccccn2)N(C)S(=O)(=O)c2ccccc21.Cl [P-51, 4-N,N-dimethylaminobutyryloxy-2-methyl-N-2-pyridinyl-2H,1,2-benzothiazine-3-carboxamide 1,1-dioxide.HCl]
tumor Size at day 42 [1, 5]: 390 ± 55 mm^3

Compound: Br.CCN(CC)CCOC(=O)CCCc1ccc(N(CCCl)CCCl)cc1 [N,N-diethylaminoethyl 4-[bis(2-chloroethyl)amino]benzenebutyrate.HBr]
Life Elongation Rate ([2]; 1 mg/kg per day, orally): 158%
Survival Period ([2]; 1 mg/kg per day, orally): 71.7 ± 3.3 days
Life Elongation Rate ([2]; 1 mg/kg per day, transdermally): 188%
Survival Period ([2]; 1 mg/kg per day, transdermally): 85.7 ± 4.4 days
Life Elongation Rate ([2]; 3 mg/kg per day, orally): 194%
Survival Period ([2]; 3 mg/kg per day, orally): 88.5 ± 3.2 days
Life Elongation Rate ([2]; 3 mg/kg per day, transdermally): 201%
Survival Period ([2]; 3 mg/kg per day, transdermally): 91.5 ± 4.7 days
Weight Loss [3, 6]: 7%
Life Elongation Rate [3, 6]: 282%
None Disease Rate [3, 6]: 4/7
Survival Period [3, 6]: 122.5 ± 7.3 days
Weight Loss ([3]; 3 mg/kg per day, transdermally): 10%
Life Elongation Rate ([3]; 3 mg/kg per day, transdermally): 269%
None Disease Rate ([3]; 3 mg/kg per day, transdermally): 4/7
Survival Period ([3]; 3 mg/kg per day, transdermally): 117.2 ± 6.1 days

Weight of mice at day 42 [1, 7]: 23 ± 2
Compound: CCN(CC)CCOC(=O)Cc1c(C)n(C(=O)c2ccc(Cl)cc2)c2ccc(OC)cc12.Cl [P-11, diethylaminoethyl 1-(p-chlorobenzoyl)-5-methoxy-2-methylindole 3-acetate.HCl]
tumor Size at day 42 [1, 5]: 230 ± 105 mm^3

Weight of mice at day 42 ([1]; in vivo): 22 ± 2
Compound: CCN(CC)CCOC(=O)Cc1ccccc1Oc1ccc(Cl)cc1Cl.Cl [P-19, diethylaminoethyl 2-(2,4-dichlorophenoxy)benzeneacetate.HCl]
tumor Size at day 42 [1, 5]: 260 ± 55 mm^3

Compound: Br.CCN(CC)CCOC(=O)[C@H](Cc1ccc(N(CCCl)CCCl)cc1)NC(C)=O [4-[bis(2-chloroethyl)amino]-N-acetyl-L-phenylalanine N,N-diethylaminoethyl ester hydrobromide]
Life Elongation Rate ([2]; 1 mg/kg per day, orally): 151%
Survival Period ([2]; 1 mg/kg per day, orally): 68.7 ± 5.1 days
Life Elongation Rate ([2]; 1 mg/kg per day, transdermally): 190%
Survival Period ([2]; 1 mg/kg per day, transdermally): 86.7 ± 4.5 days
Life Elongation Rate ([2]; 3 mg/kg per day, orally): 187%
Survival Period ([2]; 3 mg/kg per day, orally): 85.2 ± 4.3 days
Life Elongation Rate ([2]; 3 mg/kg per day, transdermally): 192%
Survival Period ([2]; 3 mg/kg per day, transdermally): 87.5 ± 4.2 days
Weight Loss [3, 6]: 5%
Life Elongation Rate [3, 6]: 272%
None Disease Rate [3, 6]: 4/7
Survival Period [3, 6]: 118.5 ± 7.6 days
Weight Loss ([3]; 3 mg/kg per day, transdermally): 9%
Life Elongation Rate ([3]; 3 mg/kg per day, transdermally): 265%
None Disease Rate ([3]; 3 mg/kg per day, transdermally): 3/7
Survival Period ([3]; 3 mg/kg per day, transdermally): 115.2 ± 6.8 days

Compound: O=C(O)c1ccccc1O [salicylic acid]
concentration in Leg muscle [4]: 41.4 ± 11.2 nmol/g
concentration in kidney [4]: 21.2 ± 7.6 nmol/g
concentration in liver [4]: 12.2 ± 6.1 nmol/g
concentration in pancreas [4]: 14.1 ± 1.2 nmol/g
concentration in stomach [4]: 25.1 ± 2.4 nmol/g

Weight of mice at day 42 ([1]; in vivo): 23 ± 3
Compound: CC1=C(CC(=O)OCCN2CCOCC2)c2cc(F)ccc2/C1=C\c1ccc([S+](C)[O-])cc1.Cl (stereo not drawn) [P-12, 2-(4-morpholinyl)ethyl (Z)-5-fluoro-2-methyl-1-[(4-methylsulfinyl)phenylmethylene]-1H-indene-3-acetate. HCl]
tumor Size at day 42 [1, 5]: 240 ± 60 mm^3

Weight of mice at day 42 ([1]; in vivo): 23 ± 3
Compound: CCN(CC)CCOC(=O)C(C)c1ccc2c(c1)C(=O)Cc1cc(C)ccc1O2.Cl (stereo not drawn) [P-37, diethylaminoethyl 2-(8-methyl-10,11-dihydro-11-oxodibenz(b,f)oxepin-2-yl)propionate.HCl]
tumor Size at day 42 [1, 5]: 270 ± 70 mm^3

Compound: Cl.O=C(OCCCN1CCCC1)c1ccccc1Nc1cccc(C(F)(F)F)c1 [P-48]
tumor Size at day 42 [1, 5]: 280 ± 50 mm^3
Weight of mice at day 42 [1, 7]: 22 ± 3

Compound: CCN(CC)CCOc1ccccc1C(=O)O [diethylaminoethyl salicylic acid]
concentration in Leg muscle [4]: 6.2 ± 3.2 nmol/g
concentration in kidney [4]: 3.1 ± 1.6 nmol/g
concentration in liver [4]: 1.5 ± 1.2 nmol/g
concentration in pancreas [4]: 3.1 ± 1.1 nmol/g
concentration in stomach [4]: 3.2 ± 1.3 nmol/g

Compound: CCN(CC)CCOC(=O)CCCc1ccc(N(CCS(C)(=O)=O)CCS(C)(=O)=O)cc1.Cl [diethylaminoethyl 4-[bis(2-methylsulfonylethyl)amino]benzenebutyrate.HCl]
Weight Loss [3, 6]: 7%
Life Elongation Rate [3, 6]: 259%
None Disease Rate [3, 6]: 4/7
Survival Period [3, 6]: 112.5 ± 8.7 days
Weight Loss ([3]; 3 mg/kg per day, transdermally): 11%
Life Elongation Rate ([3]; 3 mg/kg per day, transdermally): 256%
None Disease Rate ([3]; 3 mg/kg per day, transdermally): 3/7
Survival Period ([3]; 3 mg/kg per day, transdermally): 111.2 ± 5.9 days

Compound: N[C@@H](Cc1ccc(N(CCCl)CCCl)cc1)C(=O)O [melphalan, reference compound]
Life Elongation Rate ([2]; 1 mg/kg per day, orally): 106%
Survival Period ([2]; 1 mg/kg per day, orally): 48.1 ± 5.3 days
Life Elongation Rate ([2]; 1 mg/kg per day, transdermally): 98%
Survival Period ([2]; 1 mg/kg per day, transdermally): 44.7 ± 3.6 days
Life Elongation Rate ([2]; 3 mg/kg per day, orally): 155%
Survival Period ([2]; 3 mg/kg per day, orally): 70.5 ± 3.2 days
Life Elongation Rate ([2]; 3 mg/kg per day, transdermally): 100%
Survival Period ([2]; 3 mg/kg per day, transdermally): 45.6 ± 3.6 days
Weight Loss ([3]; 1.5 mg/kg per day, orally): 10%
Life Elongation Rate ([3]; 1.5 mg/kg per day, orally): 121%
None Disease Rate ([3]; 1.5 mg/kg per day, orally): 0/7
Survival Period ([3]; 1.5 mg/kg per day, orally): 52.7 ± 4.3 days
Weight Loss ([3]; 3 mg/kg per day, orally): 20%
Life Elongation Rate ([3]; 3 mg/kg per day, orally): 192%
None Disease Rate ([3]; 3 mg/kg per day, orally): 2/7
Survival Period ([3]; 3 mg/kg per day, orally): 83.5 ± 5.8 days
